Among the data in patent US12516056B2, “Compounds for inhibition of janus kinase 1” (MANKIND PHARMA LTD., priority 2019, dated 2026) are IC50 values, retold here.

The target of one assay is T1, Recombinant JAK1 (Homo sapiens, UniProt P23458).
T1 construct: purchased Carna Biosciences
The experiment in a line: JAK biochemical assay (LANCE Ultra TR-FRET), JAK1. The conditions noted are these: recombinant JAK1, TR-FRET; read-out: Biochemical Assay (μM) JAK1. A digest of the protocol: (§1)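 TR-FRET read-out of ULight substrate phosphorylation by recombinant kinase gives % inhibition relative to vehicle. The assay buffer is HEPES pH 7.5 with EGTA, MgCl2, DTT and Tween-20.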
Background: TR-FRET usually uses a lanthanide donor and a delayed reading to cut background.

A further assay deals with T2, Recombinant JAK2 (Homo sapiens, UniProt O60674).
T2 construct: purchased Carna Biosciences
T2 sequence (O60674 whole entry): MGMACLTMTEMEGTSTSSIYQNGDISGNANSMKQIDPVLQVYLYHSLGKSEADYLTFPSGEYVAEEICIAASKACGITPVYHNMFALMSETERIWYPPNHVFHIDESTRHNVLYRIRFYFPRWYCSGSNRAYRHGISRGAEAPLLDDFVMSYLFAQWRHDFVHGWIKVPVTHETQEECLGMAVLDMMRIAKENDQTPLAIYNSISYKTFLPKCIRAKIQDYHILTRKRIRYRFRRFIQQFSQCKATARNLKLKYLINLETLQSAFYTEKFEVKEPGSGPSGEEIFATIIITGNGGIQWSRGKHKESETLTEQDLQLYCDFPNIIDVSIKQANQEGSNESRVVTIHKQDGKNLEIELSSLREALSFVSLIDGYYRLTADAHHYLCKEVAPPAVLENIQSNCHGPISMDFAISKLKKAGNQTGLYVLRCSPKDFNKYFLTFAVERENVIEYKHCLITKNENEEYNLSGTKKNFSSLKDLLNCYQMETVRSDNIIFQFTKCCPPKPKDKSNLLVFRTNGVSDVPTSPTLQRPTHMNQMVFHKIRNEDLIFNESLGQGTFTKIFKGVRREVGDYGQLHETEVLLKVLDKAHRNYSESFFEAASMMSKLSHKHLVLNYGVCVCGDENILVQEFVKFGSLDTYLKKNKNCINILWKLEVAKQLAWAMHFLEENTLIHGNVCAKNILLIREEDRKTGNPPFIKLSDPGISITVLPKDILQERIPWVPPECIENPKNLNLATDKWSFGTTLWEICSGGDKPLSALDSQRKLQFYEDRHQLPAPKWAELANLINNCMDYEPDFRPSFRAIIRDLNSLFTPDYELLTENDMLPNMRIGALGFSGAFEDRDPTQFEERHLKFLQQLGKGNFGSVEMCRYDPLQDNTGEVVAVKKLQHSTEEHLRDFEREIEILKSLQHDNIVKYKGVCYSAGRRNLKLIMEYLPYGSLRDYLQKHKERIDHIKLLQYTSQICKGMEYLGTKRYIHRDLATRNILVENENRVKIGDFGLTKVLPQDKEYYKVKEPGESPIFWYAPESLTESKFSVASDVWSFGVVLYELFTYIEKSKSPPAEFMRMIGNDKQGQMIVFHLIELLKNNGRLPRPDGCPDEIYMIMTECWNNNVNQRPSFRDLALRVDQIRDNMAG
The experiment in a line: JAK biochemical assay (LANCE Ultra TR-FRET), JAK2. The conditions noted are these: recombinant JAK2, TR-FRET; read-out: Biochemical Assay (μM) JAK2. A digest of the protocol:
as §1

The next assay has as its target T3, Recombinant JAK3 (Homo sapiens, UniProt P52333).
T3 construct: purchased Carna Biosciences
T3 sequence (P52333 1-1124): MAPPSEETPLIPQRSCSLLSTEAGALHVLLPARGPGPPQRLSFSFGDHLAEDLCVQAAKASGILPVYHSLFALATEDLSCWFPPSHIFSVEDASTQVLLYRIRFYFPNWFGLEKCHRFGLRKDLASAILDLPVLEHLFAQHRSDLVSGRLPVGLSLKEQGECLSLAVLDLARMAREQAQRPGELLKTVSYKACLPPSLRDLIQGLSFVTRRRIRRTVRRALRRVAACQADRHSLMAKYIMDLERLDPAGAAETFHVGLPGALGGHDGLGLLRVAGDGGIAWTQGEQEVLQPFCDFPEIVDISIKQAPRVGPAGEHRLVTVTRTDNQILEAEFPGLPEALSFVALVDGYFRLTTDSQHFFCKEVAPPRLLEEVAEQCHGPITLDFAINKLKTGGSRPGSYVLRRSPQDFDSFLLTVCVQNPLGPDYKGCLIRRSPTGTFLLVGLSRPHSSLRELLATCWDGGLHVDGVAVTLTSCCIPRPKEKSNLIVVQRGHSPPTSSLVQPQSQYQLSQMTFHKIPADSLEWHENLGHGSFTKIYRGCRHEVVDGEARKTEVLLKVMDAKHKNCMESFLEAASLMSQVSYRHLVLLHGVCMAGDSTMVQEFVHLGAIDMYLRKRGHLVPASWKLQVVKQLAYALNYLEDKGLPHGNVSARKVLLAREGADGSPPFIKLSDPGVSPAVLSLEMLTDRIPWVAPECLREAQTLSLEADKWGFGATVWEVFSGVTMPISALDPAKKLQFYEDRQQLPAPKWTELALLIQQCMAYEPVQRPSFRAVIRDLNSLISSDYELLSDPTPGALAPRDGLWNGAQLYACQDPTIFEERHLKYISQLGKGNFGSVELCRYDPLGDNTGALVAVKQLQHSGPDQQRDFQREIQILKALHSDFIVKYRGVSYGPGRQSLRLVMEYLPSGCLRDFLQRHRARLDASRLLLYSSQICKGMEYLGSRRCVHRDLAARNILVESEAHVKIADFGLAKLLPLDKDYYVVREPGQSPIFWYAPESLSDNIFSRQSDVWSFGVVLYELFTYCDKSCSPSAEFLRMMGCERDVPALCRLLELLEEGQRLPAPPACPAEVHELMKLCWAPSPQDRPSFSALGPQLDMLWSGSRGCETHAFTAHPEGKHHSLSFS
The experiment in a line: JAK biochemical assay (LANCE Ultra TR-FRET), JAK3. The conditions noted are these: recombinant JAK3, TR-FRET; read-out: Biochemical Assay (μM) JAK3. A digest of the protocol: as §1

The target of another assay is T4, Recombinant TYK2 (Homo sapiens, UniProt P29597).
T4 construct: purchased Carna Biosciences
T4 sequence (P29597 whole entry): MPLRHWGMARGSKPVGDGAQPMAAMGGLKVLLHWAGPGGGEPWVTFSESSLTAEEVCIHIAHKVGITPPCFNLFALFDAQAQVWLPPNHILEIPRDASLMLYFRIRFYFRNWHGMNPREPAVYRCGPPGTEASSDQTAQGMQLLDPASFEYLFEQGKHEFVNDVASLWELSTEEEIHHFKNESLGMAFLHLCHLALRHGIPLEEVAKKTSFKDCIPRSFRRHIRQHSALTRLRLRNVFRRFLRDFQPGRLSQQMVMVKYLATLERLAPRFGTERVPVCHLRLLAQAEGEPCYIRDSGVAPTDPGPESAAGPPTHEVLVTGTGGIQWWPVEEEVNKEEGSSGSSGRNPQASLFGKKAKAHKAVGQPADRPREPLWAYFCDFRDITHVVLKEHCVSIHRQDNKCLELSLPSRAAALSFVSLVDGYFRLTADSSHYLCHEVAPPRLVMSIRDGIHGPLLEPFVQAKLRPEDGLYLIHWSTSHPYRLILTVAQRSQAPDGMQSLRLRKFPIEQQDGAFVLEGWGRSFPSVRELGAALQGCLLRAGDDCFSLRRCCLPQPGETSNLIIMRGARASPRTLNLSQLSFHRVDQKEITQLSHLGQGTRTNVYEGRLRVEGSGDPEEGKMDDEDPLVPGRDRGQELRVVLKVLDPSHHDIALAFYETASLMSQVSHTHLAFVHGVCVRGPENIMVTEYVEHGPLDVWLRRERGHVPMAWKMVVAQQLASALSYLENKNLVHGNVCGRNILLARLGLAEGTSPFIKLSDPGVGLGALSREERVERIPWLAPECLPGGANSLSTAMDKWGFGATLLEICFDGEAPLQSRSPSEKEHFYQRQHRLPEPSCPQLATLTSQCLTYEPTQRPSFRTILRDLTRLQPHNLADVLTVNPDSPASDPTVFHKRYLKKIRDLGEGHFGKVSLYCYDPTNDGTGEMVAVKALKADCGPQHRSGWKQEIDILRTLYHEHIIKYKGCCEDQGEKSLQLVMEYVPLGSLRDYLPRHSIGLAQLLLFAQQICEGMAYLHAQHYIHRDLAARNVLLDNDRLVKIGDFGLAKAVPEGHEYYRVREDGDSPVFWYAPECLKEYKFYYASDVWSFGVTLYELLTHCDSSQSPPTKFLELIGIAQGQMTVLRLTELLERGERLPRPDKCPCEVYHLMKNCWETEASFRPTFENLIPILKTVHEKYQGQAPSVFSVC
The experiment in a line: JAK biochemical assay (LANCE Ultra TR-FRET), TYK2. The note with it: recombinant TYK2, TR-FRET; read-out: Biochemical Assay (μM) TYK2. The method in brief: as §1

For assay [1], the system named is STAT3 phosphorylation by IL-6 in TF-1 cells. The experiment in a line: JAK cellular assay: STAT3 phosphorylation by IL-6 in TF-1 cells (HTRF). The class given is cell-based. The conditions noted are these: Homo sapiens, TF-1, TF-1 cells, IL-6 30 ng/ml, pSTAT3 HTRF; read-out: Cell Based Assay (μM) TF-1/IL-6/pSTAT3. The method in brief: (§2)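 Phospho-STAT3 (IL-6, 30 ng/ml) and phospho-STAT5 (GMCSF, 5 ng/ml) read by HTRF in lysates after 20 min cytokine exposure, minus unstimulated-cell background. Cells were serum-starved overnight, plated at 120,000/well, given compound 30 min at 37 °C beforehand; DMSO 0.2% final.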

Assay [2] concerns STAT5 phosphorylation by GMCSF in TF-1 cells. The experiment in a line: JAK cellular assay: STAT5 phosphorylation by GMCSF in TF-1 cells (HTRF). The class given is cell-based. The note with it: Homo sapiens; TF-1 cells, GMCSF 5 ng/ml, pSTAT5 HTRF; read-out: Cell Based Assay (μM) TF-1/GMCSF/pSTAT5. The method in brief:
as §2

Assay [3] has as its system STAT5 phosphorylation by IL-2 in HT-2 cells. The experiment in a line: STAT5 phosphorylation by IL-2 in HT-2 cells (HTRF). The class given is cell-based. The note with it: HT2, HT-2 cells, IL-2 50 U/ml, pSTAT5 HTRF; read-out: Cell Based Assay (μM) HT-2/IL-2/pSTAT5. A digest of the protocol:
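Readout is HTRF detection of phospho-STAT5 in lysates, corrected for signal from unstimulated cells. Before lysis, HT-2 cells starved in 10% FBS medium received compound for 30 min (0.2% DMSO final, 37 °C), followed by 50 U/ml recombinant human IL-2 for 20 min.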

Some results are limits rather than exact numbers.

T1 sequence (P23458 whole entry): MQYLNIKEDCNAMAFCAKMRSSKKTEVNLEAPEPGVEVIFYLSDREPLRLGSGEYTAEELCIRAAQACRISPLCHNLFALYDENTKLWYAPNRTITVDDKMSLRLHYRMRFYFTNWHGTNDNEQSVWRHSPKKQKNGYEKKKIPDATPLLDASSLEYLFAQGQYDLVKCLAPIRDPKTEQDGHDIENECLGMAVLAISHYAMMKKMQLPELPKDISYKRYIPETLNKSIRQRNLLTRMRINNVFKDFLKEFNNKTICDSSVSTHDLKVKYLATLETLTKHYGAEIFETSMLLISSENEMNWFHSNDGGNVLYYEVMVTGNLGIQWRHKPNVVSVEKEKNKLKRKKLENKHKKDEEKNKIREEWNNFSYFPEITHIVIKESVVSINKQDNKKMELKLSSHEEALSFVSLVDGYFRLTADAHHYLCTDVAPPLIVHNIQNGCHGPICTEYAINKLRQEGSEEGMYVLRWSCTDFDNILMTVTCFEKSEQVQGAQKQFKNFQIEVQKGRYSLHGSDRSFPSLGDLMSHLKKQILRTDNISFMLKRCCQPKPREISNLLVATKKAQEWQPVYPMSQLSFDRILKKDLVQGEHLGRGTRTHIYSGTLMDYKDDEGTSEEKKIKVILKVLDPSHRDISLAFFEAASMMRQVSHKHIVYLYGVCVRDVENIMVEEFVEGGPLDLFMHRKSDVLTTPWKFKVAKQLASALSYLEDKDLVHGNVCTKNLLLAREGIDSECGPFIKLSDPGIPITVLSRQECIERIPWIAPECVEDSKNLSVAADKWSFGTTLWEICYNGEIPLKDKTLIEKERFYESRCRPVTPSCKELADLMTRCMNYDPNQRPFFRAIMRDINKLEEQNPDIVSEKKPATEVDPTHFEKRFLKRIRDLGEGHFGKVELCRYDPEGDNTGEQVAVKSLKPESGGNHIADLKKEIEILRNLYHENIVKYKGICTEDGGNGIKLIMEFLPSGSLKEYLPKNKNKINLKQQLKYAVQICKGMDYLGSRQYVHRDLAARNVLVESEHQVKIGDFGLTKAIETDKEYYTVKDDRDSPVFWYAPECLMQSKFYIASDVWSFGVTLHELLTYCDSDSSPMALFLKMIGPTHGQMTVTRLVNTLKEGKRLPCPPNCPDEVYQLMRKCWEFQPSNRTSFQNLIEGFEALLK

Consider `N#CCNC(=O)n1cc(-c2ccnc3[nH]c(=O)[nH]c23)cn1` [Example 1027, N-(cyanomethyl)-4-(2,3-dihydro-2-oxo-1H-imidazo[4,5-b]pyridin-7-yl)-1H-pyrazole-1-carboxamide], for which the IC50 at Recombinant JAK1 was 0.028 µM; on Recombinant JAK2, 0.044 µM; on Recombinant JAK3, 0.146 µM; on Recombinant TYK2, 0.096 µM; in assay [1] it was above 10 µM; in assay [2] it was above 10 µM. Also, in assay [3], the IC50 is above 10 µM.

In the case of `FC(F)(F)C(CCNC1CC1)c1ccc(-n2cc(-c3ccnc4[nH]cnc34)cn2)nc1` (stereo not drawn) [Example 1153, N-(3-(6-(4-(3H-imidazo[4,5-b]pyridin-7-yl)-1H-pyrazol-1-yl)pyridin-3-yl)-4,4,4-trifluorobutyl)cyclopropanamine], the IC50 at Recombinant JAK1 was below 0.1 µM; at Recombinant JAK2 it was below 0.1 µM; on Recombinant JAK3, below 0.1 µM; at Recombinant TYK2 it was above 0.5 µM; in assay [1], 0.36 µM; in assay [2], above 1 µM. For the same molecule, the IC50 in assay [3] came to 2.1 µM.

For `CC(C)S(=O)(=O)CCC(c1ccc(-n2cc(-c3ccnc4[nH]cnc34)cn2)nc1)C(F)(F)F` (stereo not drawn) [Example 1186, 7-(1-(5-(1,1,1-trifluoro-4-(isopropylsulfonyl)butan-2-yl)pyridin-2-yl)-1H-pyrazol-4-yl)-3H-imidazo[4,5-b]pyridine], the IC50 at Recombinant JAK1 was below 0.1 µM; on Recombinant JAK2 it was above 0.1 µM; on Recombinant JAK3, above 0.1 µM; on Recombinant TYK2 it was above 1 µM; in assay [1] it was above 0.8 µM; in assay [2] it was above 1 µM. Besides, the IC50 in assay [3] was above 1 µM.

Consider `CNCCOC(c1ccc(-n2cc(-c3ccnc4[nH]cnc34)cn2)nc1)C(F)(F)F` (stereo not drawn) [Example 1228, 2-(1-(6-(4-(3H-imidazo[4,5-b]pyridin-7-yl)-1H-pyrazol-1-yl)pyridin-3-yl)-2,2,2-trifluoroethoxy)-N-methylethanamine], for which the IC50 on Recombinant JAK1 was below 0.1 µM; at Recombinant JAK2, below 0.1 µM; at Recombinant JAK3, below 0.1 µM; on Recombinant TYK2 it was above 0.1 µM; in assay [1], above 0.5 µM; in assay [2] it was above 1 µM. The IC50 in assay [3] was above 0.5 µM.

With `FC(F)(F)[C@@H](c1ccc(-n2cc(-c3ccnc4[nH]cnc34)cn2)nc1)C1COC1` (single isomer, unassigned) [Example 1184], the IC50 at Recombinant JAK1 is below 0.1 µM; at Recombinant JAK2 it was above 0.1 µM; at Recombinant JAK3, below 0.1 µM; on Recombinant TYK2, above 1 µM; in assay [1], above 0.8 µM; in assay [2], above 1 µM. In assay [3], the IC50 was found to be 1.5 µM.

Consider `O[C@@](c1ccc(-n2cc(-c3ccnc4[nH]cnc34)cn2)nc1)(C1CCN(C2COC2)C1)C(F)(F)F` (stereo partly drawn) [Example 1242, (R)-1-(6-(4-(3H-imidazo[4,5-b]pyridin-7-yl)-1H-pyrazol-1-yl)pyridin-3-yl)-2,2,2-trifluoro-1-(1-(oxetan-3-yl)pyrrolidin-3-yl)ethanol], for which the IC50 is below 0.1 µM at Recombinant JAK1; below 0.1 µM on Recombinant JAK2; below 0.1 µM on Recombinant JAK3; above 1 µM on Recombinant TYK2; above 1 µM in assay [1]; above 1 µM in assay [2]. Besides, the IC50 in assay [3] is above 1 µM.

Consider `CC(C)NCCC(c1ccc(-n2cc(-c3ccnc4[nH]cnc34)cn2)nc1)C(F)(F)F` (stereo not drawn) [Example 1203, 3-(6-(4-(3H-imidazo[4,5-b]pyridin-7-yl)-1H-pyrazol-1-yl)pyridin-3-yl)-4,4,4-trifluoro-N-isopropylbutan-1-amine], for which the IC50 is below 0.1 µM at Recombinant JAK1; below 0.1 µM at Recombinant JAK2; below 0.1 µM on Recombinant JAK3; above 0.5 µM on Recombinant TYK2; above 0.1 µM in assay [1]; above 1 µM in assay [2]. In assay [3], the IC50 is above 0.5 µM.

For the molecule `O=C(NCCC(c1ccc(-n2cc(-c3ccnc4[nH]cnc34)cn2)nc1)C(F)(F)F)C1CCCC1` (stereo not drawn) [Example 1151, N-(3-(6-(4-(3H-imidazo[4,5-b]pyridin-7-yl)-1H-pyrazol-1-yl)pyridin-3-yl)-4,4,4-trifluorobutyl)cyclopentanecarboxamide], the IC50 on Recombinant JAK1 is below 0.1 µM; on Recombinant JAK2 it was above 0.1 µM; on Recombinant JAK3 it was above 0.1 µM; at Recombinant TYK2, above 1 µM; in assay [1] it was above 0.5 µM; in assay [2], above 1 µM. The IC50 in assay [3] was above 1 µM.

Consider `O=C(NCCC(c1ccc(-n2cc(-c3ccnc4[nH]cnc34)cn2)nc1)C(F)(F)F)NC1CC1` (stereo not drawn) [Example 1179, 1-(3-(6-(4-(3H-imidazo[4,5-b]pyridin-7-yl)-1H-Pyrazol-1-yl)pyridin-3-yl)-4,4,4-trifluorobutyl)-3-cyclopropylurea], for which the IC50 was below 0.1 µM on Recombinant JAK1; below 0.1 µM on Recombinant JAK2; below 0.1 µM at Recombinant JAK3; above 1 µM at Recombinant TYK2; above 1 µM in assay [1]; above 1 µM in assay [2]. The IC50 in assay [3] is above 1 µM.

With `N#CCCC(O)(c1ccc(-n2cc(-c3ccnc4[nH]cnc34)cn2)nc1)C(F)(F)F` (stereo not drawn) [Example 1227, 4-(6-(4-(3H-imidazo[4,5-b]pyridin-7-yl)-1H-pyrazol-1-yl)pyridin-3-yl)-5,5,5-trifluoro-4-hydroxypentanenitrile], the IC50 at Recombinant JAK1 was below 0.1 µM; at Recombinant JAK2 it was below 0.1 µM; on Recombinant JAK3, below 0.1 µM; on Recombinant TYK2, above 0.1 µM; in assay [1], above 0.1 µM; in assay [2], above 0.75 µM. Also, the IC50 in assay [3] is above 0.5 µM.

On to `CC(=O)N1CCC(C(O)(c2ccc(-n3cc(-c4ccnc5[nH]cnc45)cn3)nc2)C(F)(F)F)CC1` (stereo not drawn) [Example 1131, 1-(4-(1-(6-(4-(3H-imidazo[4,5-b]pyridin-7-yl)-1H-pyrazol-1-yl)pyridin-3-yl)-2,2,2-trifluoro-1-hydroxyethyl)piperidin-1-yl)ethanone], for which the IC50 at Recombinant JAK1 is 0.053 µM; on Recombinant JAK2 it was 0.38 µM; on Recombinant JAK3 it was 0.11 µM; on Recombinant TYK2, above 1 µM; in assay [1], above 0.5 µM; in assay [2], above 10 µM. Moreover, in assay [3], the IC50 is above 1 µM.

Regarding `FC(F)(F)C(c1ccc(-n2cc(-c3ccnc4[nH]cnc34)cn2)nc1)C1COC1` (stereo not drawn) [Example 1136, 7-(1-(5-(2,2,2-trifluoro-1-(oxetan-3-yl)ethyl)pyridin-2-yl)-1H-pyrazol-4-yl)-3H-imidazo[4,5-b]pyridine], the IC50 is below 0.1 µM at Recombinant JAK1; below 0.1 µM on Recombinant JAK2; below 0.1 µM on Recombinant JAK3; above 1 µM on Recombinant TYK2; 0.7 µM in assay [1]; above 1 µM in assay [2]. Besides, the IC50 in assay [3] stood at 0.8 µM.
